From ChEMBL document CHEMBL3044763, “Inhibitory Activities of Rhodanine Derivatives on Plant Growth” (Biosci Biotechnol Biochem, 1996)

Columns and labels:
[1] = test system: Brassica rapa subsp. oleifera; assay: Growth inhibition of Brassica rapa subsp. oleifera assessed as chlorophyll b level at 3 x 10^-4 M after 7 days; assay type: functional; design: scale not given: the % may be the effect or the level left
[2] = test system: Brassica rapa subsp. oleifera; assay: Growth inhibition of Brassica rapa subsp. oleifera assessed as chlorophyll b level at 1 x 10^-4 M after 7 days; assay type: functional; design: scale not given: the % may be the effect or the level left
[3] = test system: Brassica rapa subsp. oleifera; assay: Growth inhibition of Brassica rapa subsp. oleifera assessed as chlorophyll a level at 3 x 10^-5 M after 7 days; assay type: functional; design: scale not given: the % may be the effect or the level left
[4] = test system: Brassica rapa subsp. oleifera; assay: Growth inhibition of Brassica rapa subsp. oleifera assessed as chlorophyll a level at 5 x 10^-5 M after 7 days; assay type: functional; design: scale not given: the % may be the effect or the level left
[5] = Toxicity in Mus musculus ddY (mouse) assessed as mortality at 300 mg/kg, ip after 4 days; assay type: organism-based; design: dose 300 mg/kg, route intraperitoneal; settings: in vivo
[6] = Toxicity in Mus musculus ddY (mouse) assessed as mortality at 275 mg/kg, ip after 4 days; assay type: organism-based; design: dose 275 mg/kg, route intraperitoneal; settings: in vivo
[7] = Toxicity in Mus musculus ddY (mouse) assessed as mortality at 350 mg/kg, ip after 4 days; assay type: organism-based; design: dose 350 mg/kg, route intraperitoneal; settings: in vivo
[8] = Toxicity in Mus musculus ddY (mouse) assessed as mortality at 325 mg/kg, ip after 4 days; assay type: organism-based; design: dose 325 mg/kg, route intraperitoneal; settings: in vivo
[9] = Toxicity in ip dosed Mus musculus ddY (mouse) assessed as mortality after 1 to 7 days; assay type: organism-based; settings: in vivo
[10] = test system: Brassica rapa subsp. oleifera; assay: Growth inhibition of Brassica rapa subsp. oleifera assessed as total chlorophyll level at 5 x 10^-5 M after 7 days; assay type: functional; design: scale not given: the % may be the effect or the level left
[11] = test system: Brassica rapa subsp. oleifera; assay: Growth inhibition of Brassica rapa subsp. oleifera assessed as total chlorophyll level at 3 x 10^-5 M after 7 days; assay type: functional; design: scale not given: the % may be the effect or the level left
[12] = test system: Brassica rapa subsp. oleifera; assay: Growth inhibition of Brassica rapa subsp. oleifera assessed as total chlorophyll level at 1 x 10^-4 M after 7 days; assay type: functional; design: scale not given: the % may be the effect or the level left
[13] = test system: Brassica rapa subsp. oleifera; assay: Growth inhibition of Brassica rapa subsp. oleifera assessed as total chlorophyll level at 3 x 10^-4 M after 7 days; assay type: functional; design: scale not given: the % may be the effect or the level left
[14] = test system: Brassica rapa subsp. oleifera; assay: Growth inhibition of Brassica rapa subsp. oleifera assessed as root growth at 3 x 10^-5 M after 7 days; assay type: functional
[15] = test system: Brassica rapa subsp. oleifera; assay: Growth inhibition of Brassica rapa subsp. oleifera assessed as root growth at 5 x 10^-5 M after 7 days; assay type: functional
[16] = test system: Brassica rapa subsp. oleifera; assay: Growth inhibition of Brassica rapa subsp. oleifera assessed as root growth at 1 x 10^-4 M after 7 days; assay type: functional
[17] = test system: Brassica rapa subsp. oleifera; assay: Growth inhibition of Brassica rapa subsp. oleifera assessed as root growth at 3 x 10^-4 M after 7 days; assay type: functional
[18] = Toxicity in Mus musculus ddY (mouse) assessed as mortality at 400 mg/kg, ip after 4 days; assay type: organism-based; design: dose 400 mg/kg, route intraperitoneal; settings: in vivo
[19] = Toxicity in Mus musculus ddY (mouse) assessed as mortality at 375 mg/kg, ip after 4 days; assay type: organism-based; design: dose 375 mg/kg, route intraperitoneal; settings: in vivo
[20] = Toxicity in Mus musculus ddY (mouse) assessed as mortality at 375 mg/kg, ip after 3 days; assay type: organism-based; design: dose 375 mg/kg, route intraperitoneal; settings: in vivo
[21] = Toxicity in Mus musculus ddY (mouse) assessed as mortality at 350 mg/kg, ip after 3 days; assay type: organism-based; design: dose 350 mg/kg, route intraperitoneal; settings: in vivo
[22] = Toxicity in Mus musculus ddY (mouse) assessed as mortality at 400 mg/kg, ip after 3 days; assay type: organism-based; design: dose 400 mg/kg, route intraperitoneal; settings: in vivo
[23] = Toxicity in Mus musculus ddY (mouse) assessed as mortality at 300 mg/kg, ip after 3 days; assay type: organism-based; design: dose 300 mg/kg, route intraperitoneal; settings: in vivo
[24] = Toxicity in Mus musculus ddY (mouse) assessed as mortality at 275 mg/kg, ip after 3 days; assay type: organism-based; design: dose 275 mg/kg, route intraperitoneal; settings: in vivo
[25] = Toxicity in Mus musculus ddY (mouse) assessed as mortality at 325 mg/kg, ip after 3 days; assay type: organism-based; design: dose 325 mg/kg, route intraperitoneal; settings: in vivo
[26] = Toxicity in Mus musculus ddY (mouse) assessed as mortality at 300 mg/kg, ip after 2 days; assay type: organism-based; design: dose 300 mg/kg, route intraperitoneal; settings: in vivo
[27] = Toxicity in Mus musculus ddY (mouse) assessed as mortality at 275 mg/kg, ip after 2 days; assay type: organism-based; design: dose 275 mg/kg, route intraperitoneal; settings: in vivo
[28] = Toxicity in Mus musculus ddY (mouse) assessed as mortality at 350 mg/kg, ip after 2 days; assay type: organism-based; design: dose 350 mg/kg, route intraperitoneal; settings: in vivo
[29] = Toxicity in Mus musculus ddY (mouse) assessed as mortality at 325 mg/kg, ip after 2 days; assay type: organism-based; design: dose 325 mg/kg, route intraperitoneal; settings: in vivo
[30] = Toxicity in Mus musculus ddY (mouse) assessed as mortality at 400 mg/kg, ip after 2 days; assay type: organism-based; design: dose 400 mg/kg, route intraperitoneal; settings: in vivo
[31] = Toxicity in Mus musculus ddY (mouse) assessed as mortality at 375 mg/kg, ip after 2 days; assay type: organism-based; design: dose 375 mg/kg, route intraperitoneal; settings: in vivo
[32] = Toxicity in Mus musculus ddY (mouse) assessed as mortality at 300 mg/kg, ip after 1 day; assay type: organism-based; design: dose 300 mg/kg, route intraperitoneal; settings: in vivo
[33] = Toxicity in Mus musculus ddY (mouse) assessed as mortality at 275 mg/kg, ip after 1 day; assay type: organism-based; design: dose 275 mg/kg, route intraperitoneal; settings: in vivo
[34] = Toxicity in Mus musculus ddY (mouse) assessed as mortality at 325 mg/kg, ip after 1 day; assay type: organism-based; design: dose 325 mg/kg, route intraperitoneal; settings: in vivo
[35] = Toxicity in Mus musculus ddY (mouse) assessed as mortality at 375 mg/kg, ip after 1 day; assay type: organism-based; design: dose 375 mg/kg, route intraperitoneal; settings: in vivo
[36] = Toxicity in Mus musculus ddY (mouse) assessed as mortality at 350 mg/kg, ip after 1 day; assay type: organism-based; design: dose 350 mg/kg, route intraperitoneal; settings: in vivo
[37] = test system: Brassica rapa subsp. oleifera; assay: Growth inhibition of Brassica rapa subsp. oleifera assessed as chlorophyll b level at 3 x 10^-5 M after 7 days; assay type: functional; design: scale not given: the % may be the effect or the level left
[38] = Toxicity in Mus musculus ddY (mouse) assessed as mortality at 400 mg/kg, ip after 1 day; assay type: organism-based; design: dose 400 mg/kg, route intraperitoneal; settings: in vivo
[39] = test system: Brassica rapa subsp. oleifera; assay: Growth inhibition of Brassica rapa subsp. oleifera assessed as chlorophyll b level at 5 x 10^-5 M after 7 days; assay type: functional; design: scale not given: the % may be the effect or the level left
[40] = test system: Brassica rapa subsp. oleifera; assay: Growth inhibition of Brassica rapa subsp. oleifera assessed as chlorophyll a level at 1 x 10^-4 M after 7 days; assay type: functional; design: scale not given: the % may be the effect or the level left
[41] = test system: Brassica rapa subsp. oleifera; assay: Growth inhibition of Brassica rapa subsp. oleifera assessed as chlorophyll a level at 3 x 10^-4 M after 7 days; assay type: functional; design: scale not given: the % may be the effect or the level left
[42] = Toxicity in Mus musculus ddY (mouse) assessed as mortality at 275 mg/kg, ip after 5 days; assay type: organism-based; design: dose 275 mg/kg, route intraperitoneal; settings: in vivo
[43] = Toxicity in Mus musculus ddY (mouse) assessed as mortality at 325 mg/kg, ip after 5 days; assay type: organism-based; design: dose 325 mg/kg, route intraperitoneal; settings: in vivo
[44] = Toxicity in Mus musculus ddY (mouse) assessed as mortality at 300 mg/kg, ip after 5 days; assay type: organism-based; design: dose 300 mg/kg, route intraperitoneal; settings: in vivo
[45] = Toxicity in Mus musculus ddY (mouse) assessed as mortality at 375 mg/kg, ip after 5 days; assay type: organism-based; design: dose 375 mg/kg, route intraperitoneal; settings: in vivo
[46] = Toxicity in Mus musculus ddY (mouse) assessed as mortality at 350 mg/kg, ip after 5 days; assay type: organism-based; design: dose 350 mg/kg, route intraperitoneal; settings: in vivo
[47] = Toxicity in Mus musculus ddY (mouse) assessed as mortality at 400 mg/kg, ip after 5 days; assay type: organism-based; design: dose 400 mg/kg, route intraperitoneal; settings: in vivo
[48] = Toxicity in Mus musculus ddY (mouse) assessed as mortality at 275 mg/kg, ip after 7 days; assay type: organism-based; design: dose 275 mg/kg, route intraperitoneal; settings: in vivo
[49] = Toxicity in Mus musculus ddY (mouse) assessed as mortality at 325 mg/kg, ip after 7 days; assay type: organism-based; design: dose 325 mg/kg, route intraperitoneal; settings: in vivo
[50] = Toxicity in Mus musculus ddY (mouse) assessed as mortality at 300 mg/kg, ip after 7 days; assay type: organism-based; design: dose 300 mg/kg, route intraperitoneal; settings: in vivo
[51] = Toxicity in Mus musculus ddY (mouse) assessed as mortality at 350 mg/kg, ip after 7 days; assay type: organism-based; design: dose 350 mg/kg, route intraperitoneal; settings: in vivo
[52] = Toxicity in Mus musculus ddY (mouse) assessed as mortality at 400 mg/kg, ip after 7 days; assay type: organism-based; design: dose 400 mg/kg, route intraperitoneal; settings: in vivo
[53] = Toxicity in Mus musculus ddY (mouse) assessed as mortality at 375 mg/kg, ip after 7 days; assay type: organism-based; design: dose 375 mg/kg, route intraperitoneal; settings: in vivo
[54] = Toxicity in Mus musculus ddY (mouse) assessed as mortality at 300 mg/kg, ip after 6 days; assay type: organism-based; design: dose 300 mg/kg, route intraperitoneal; settings: in vivo
[55] = Toxicity in Mus musculus ddY (mouse) assessed as mortality at 275 mg/kg, ip after 6 days; assay type: organism-based; design: dose 275 mg/kg, route intraperitoneal; settings: in vivo
[56] = Toxicity in Mus musculus ddY (mouse) assessed as mortality at 350 mg/kg, ip after 6 days; assay type: organism-based; design: dose 350 mg/kg, route intraperitoneal; settings: in vivo
[57] = Toxicity in Mus musculus ddY (mouse) assessed as mortality at 325 mg/kg, ip after 6 days; assay type: organism-based; design: dose 325 mg/kg, route intraperitoneal; settings: in vivo
[58] = Toxicity in Mus musculus ddY (mouse) assessed as mortality at 400 mg/kg, ip after 6 days; assay type: organism-based; design: dose 400 mg/kg, route intraperitoneal; settings: in vivo
[59] = Toxicity in Mus musculus ddY (mouse) assessed as mortality at 375 mg/kg, ip after 6 days; assay type: organism-based; design: dose 375 mg/kg, route intraperitoneal; settings: in vivo

## O=C1CSC(=S)N1 [RHODANINE]
[1]
  Activity: 1.44%
[2]
  Activity: 2.41%
[3]
  Activity: 14.1%
[4]
  Activity: 14.1%
[5]
  mortality at 96 h: 40%
[6]
  mortality at 96 h: 0%
[7]
  mortality at 96 h: 80%
[8]
  mortality at 96 h: 80%
[9]
  LD50: 311 mg/kg
[10]
  Activity: 19.17%
[11]
  Activity: 19.19%
[12]
  Activity: 9.16%
[13]
  Activity: 3.52%
[14]
  Root length: 46 mm
[15]
  Root length: 42.5 mm
[16]
  Activity: 38.7 mm
[17]
  Activity: 11.3 mm
[18]
  mortality at 96 h: 100%
[19]
  mortality at 96 h: 100%
[20]
  mortality at 72 h: 100%
[21]
  mortality at 72 h: 80%
[22]
  mortality at 72 h: 100%
[23]
  mortality at 72 h: 40%
[24]
  mortality at 72 h: 0%
[25]
  mortality at 72 h: 80%
[26]
  mortality at 48 h: 40%
[27]
  mortality at 48 h: 0%
[28]
  mortality at 48 h: 80%
[29]
  mortality at 48 h: 80%
[30]
  mortality at 48 h: 100%
[31]
  mortality at 48 h: 100%
[32]
  mortality at 24 h: 0%
[33]
  mortality at 24 h: 0%
[34]
  mortality at 24 h: 40%
[35]
  mortality at 24 h: 80%
[36]
  mortality at 24 h: 20%
[37]
  Activity: 4.8%
[38]
  mortality at 24 h: 80%
[39]
  Activity: 5.08%
[40]
  Activity: 6.76%
[41]
  Activity: 2.09%
[42]
  mortality at 120 h: 0%
[43]
  mortality at 120 h: 80%
[44]
  mortality at 120 h: 40%
[45]
  mortality at 120 h: 100%
[46]
  mortality at 120 h: 80%
[47]
  mortality at 120 h: 100%
[48]
  mortality at 168 h: 0%
[49]
  mortality at 168 h: 80%
[50]
  mortality at 168 h: 40%
[51]
  mortality at 168 h: 80%
[52]
  mortality at 168 h: 100%
[53]
  mortality at 168 h: 100%
[54]
  mortality at 144 h: 40%
[55]
  mortality at 144 h: 0%
[56]
  mortality at 144 h: 80%
[57]
  mortality at 144 h: 80%
[58]
  mortality at 144 h: 100%
[59]
  mortality at 144 h: 100%
